Test results: US10322132B2, “Prevention or treatment of uratic or gouty diseases” (SHANTON PHARMA CO., LTD., priority 2015, dated 2019)

System: serum uric acid
Experiment: Uric acid-lowering test in monkeys having hyperuricemia (UA subcutaneous injection)
Assay type: in vivo, cynomolgus monkeys
Set-up: Reduction rate or serum uric acid: concentration or dose not given beside the values
Settings: for Content of serum uric acid: Administration group
Procedure: The experiment was conducted by reference to Komoriya K, Osada Y, Hasegawa M, Horiuchi H, Kondo S, Couch R C, Griffin T B. Hypouricemic effect of allopurinol and the novel xanthine oxidase inhibitor TEI-6720 in chimpanzees. Eur J Pharmacol. 1993 Dec. 21; 250(3): 455-60.
In the Model group, three non-naïve cynomolgus monkeys (1 #, 2 # and 3 #) were administered with UA by subcutaneous injection at the nape. Blood was collected from the vein before UA administration and 0.5 h, 1 h, 2 h, 4 h, 6 h and 24 h after UA administration. The blood was left still at room temperature. The serum was collected by centrifugation. The content of serum uric acid was measured.
In the Administration group, three non-naïve cynomolgus monkeys (1 #, 2 # and 3 #) were administered with the test sample by intravenous injection after 2 weeks of clearance. Blood was collected from the vein before administration and 2 h after administration of test sample. Then, the monkeys were administered with UA by subcutaneous injection at the nape and blood was collected from the vein 1 h, 2 h and 4 h after the UA administration. The blood was left still at room temperature. The serum was collected by centrifugation. The content of serum uric acid was measured. Reduction rate of serum uric acid in healthy monkeys administered with test sample=(average uric acid content before administration−average uric acid content 2 h after administration of test sample)/average uric acid content before administration*100%, Reduction rate of serum uric acid in monkeys having hyperuricemia after administration of test sample=(uric acid content after UA administration in the model group−uric acid content after UA administration in the administration group)/uric acid content in the model group*(100%).
That was, the samples were collected before administration, 2 h after administration of test sample and 1 h, 2 h and 4 h after UA administration for determination of the serum uric acid content. The contents of serum uric acid in the model group and the administration group and the reduction rates of serum uric acid were shown in the following Tables 3-1, 3-2 and 3-3, respectively.

CCCCCn1c(=O)[nH]c(=O)c2[nH]c(Cl)nc21 [Compound A, 8-chloro-3-pentyl-3,7-dihydro-1H-purine-2,6-dione]
Reduction rate or serum uric acid (1 h after UA administration vs model group, animal 1#): 35.5%
Reduction rate or serum uric acid (1 h after UA administration vs model group, animal 2#): 26.2%
Reduction rate or serum uric acid (1 h after UA administration vs model group, animal 3#): 56.0%
Reduction rate or serum uric acid (1 h after UA administration vs model group, mean): 39.2%
Reduction rate or serum uric acid (2 h after UA administration vs model group, animal 1#): 67.1%
Reduction rate or serum uric acid (2 h after UA administration vs model group, animal 2#): 37.2%
Reduction rate or serum uric acid (2 h after UA administration vs model group, animal 3#): 45.5%
Reduction rate or serum uric acid (2 h after UA administration vs model group, mean): 49.1%
Reduction rate or serum uric acid (2 h after administration of test sample vs before administration (healthy monkeys), animal 1#): 46.4%
Reduction rate or serum uric acid (2 h after administration of test sample vs before administration (healthy monkeys), animal 2#): 30.2%
Reduction rate or serum uric acid (2 h after administration of test sample vs before administration (healthy monkeys), animal 3#): 1.56%
Reduction rate or serum uric acid (2 h after administration of test sample vs before administration (healthy monkeys), mean): 26.1%
Reduction rate or serum uric acid (4 h after UA administration vs model group, animal 1#): 64.3%
Reduction rate or serum uric acid (4 h after UA administration vs model group, animal 2#): 77.1%
Reduction rate or serum uric acid (4 h after UA administration vs model group, animal 3#): 32.6%
Reduction rate or serum uric acid (4 h after UA administration vs model group, mean): 58.0%
Content of serum uric acid (1 h after UA administration, animal 1#): 75.3 µmol/L
Content of serum uric acid (1 h after UA administration, animal 2#): 97.5 µmol/L
Content of serum uric acid (1 h after UA administration, animal 3#): 53.1 µmol/L
Content of serum uric acid (1 h after UA administration, mean): 75.3 µmol/L
Content of serum uric acid (2 h after UA administration, animal 1#): 26.6 µmol/L
Content of serum uric acid (2 h after UA administration, animal 2#): 58.0 µmol/L
Content of serum uric acid (2 h after UA administration, animal 3#): 37.0 µmol/L
Content of serum uric acid (2 h after UA administration, mean): 40.5 µmol/L
Content of serum uric acid (4 h after UA administration, animal 1#): 28.4 µmol/L
Content of serum uric acid (4 h after UA administration, animal 2#): 12.3 µmol/L
Content of serum uric acid (4 h after UA administration, animal 3#): 43.2 µmol/L
Content of serum uric acid (4 h after UA administration, mean): 28.0 µmol/L
Content of serum uric acid (intravenous, 2 h after administration of test sample (before UA), animal 1#): 12.3 µmol/L
Content of serum uric acid (intravenous, 2 h after administration of test sample (before UA), animal 2#): 37.0 µmol/L
Content of serum uric acid (intravenous, 2 h after administration of test sample (before UA), animal 3#): 34.6 µmol/L
Content of serum uric acid (intravenous, 2 h after administration of test sample (before UA), mean): 28.0 µmol/L
effect on content of serum uric acid in the test monkeys (in words) (compared to the model group (self-comparation)): significantly reduce
